Measured values as given in PMC11501026, “L-Arginine and asymmetric dimethylarginine (ADMA) transport across the mouse blood-brain and blood-CSF barriers: Evidence of saturable transport at both interfaces and CNS to blood efflux” (PLOS ONE, 2024).
Values joined by “and” are separate entries in the source; they are usually repeats but may differ in a detail not shown here. Equal entries are not always repeated.

How the values were obtained:
[1] = in situ brain/choroid plexus perfusion: CNS uptake of [^3H]-arginine, [^3H]-ADMA and [^14C]-sucrose (multiple-time and single-time uptake analysis); conditions: for Kp at 30 min / Kp at 20 min: male, BALB/c, mouse, in vivo; for Kp at 20 min: tissue or CSF to plasma ratio (mean), uncorrected, given as fraction
Procedure: All animals used in procedures were adult male BALB/c mice (between 23 g and 25 g) sourced from Harlan Laboratories, Oxon, UK, unless otherwise stated.
Animals were weighed immediately before the administration of the anaesthetic to ensure correct dosage. Domitor® (medetomidine hydrochloride) and Vetalar® (ketamine) were both purchased from Harlan Laboratories (Cambridge, UK). All animals were terminally anaesthetised (2 mg/kg Domitor® and 150 mg/kg Vetalar® injected intraperitoneally), and a lack of self-righting and paw-withdrawal reflexes (as surrogate indicators of consciousness) thoroughly checked prior to and during all procedures. If needed, additional anaesthetic was administered via the same route. […] At the end of the in situ brain perfusion procedure the animal was killed by decapitated under non-recovery anaesthesia. Animals were heparinised with 100 units heparin (in 0.9% m/v NaCl(aq), Harlan Laboratories; Oxon, UK), administered via the intraperitoneal route prior to surgery.
The in situ brain/choroid plexus perfusion method is designed to directly perfuse the brain with artificial plasma via a cannula placed in the heart. Artificial plasma is prepared to mimic the ionic composition of blood, and transporter inhibitors can be added in known concentrations and delivered to the brain for defined periods of time.
The left ventricle of the heart was cannulated with a 25G x 10 mm butterfly-winged needle connected to the perfusion circuit. […] The right atrium of the heart was sectioned to allow outflow of the artificial plasma. […] Radiolabelled and unlabelled test molecules were infused into the inflowing artificial plasma for periods up to 30 minutes.
At the set perfusion time a CSF sample was taken by inserting a pulled glass micropipette connected to silicon tubing and a syringe into the cisterna magna. Gentle suction was applied, and CSF was withdrawn. Only clear CSF samples were processed and taken for analysis. Samples contaminated with blood were discarded. The animal was then decapitated and the brain removed. Specific brain samples including the circumventricular organs (CVOs) were taken using a Leica S4E L2 stereomicroscope (Leica; Buckinghamshire, UK). The brain samples included the frontal cortex, caudate nucleus, occipital cortex, hippocampus, hypothalamus, thalamus, pons and cerebellum. The CVOs included the choroid plexus, pituitary gland and pineal gland.
All samples (brain regions, capillary depletion brain homogenate, pellet and supernatant, CVOs, CSF and plasma samples) were solubilised in 0.5 mL tissue solubiliser (Solvable; Perkin-Elmer; Boston, MA, USA). After incubating the samples at room temperature for 48 h, 4 mL scintillation fluid (Lumasafe®; Perkin-Elmer; Boston, MA, USA) was added to each before vigorous vortexing.

[2] = test system: [^3H]-arginine transport across the blood-brain and blood-CSF barriers; test: self-inhibition, in situ perfusion: [^3H]-arginine with 100 μM unlabelled L-arginine; type: in vivo, mouse; conditions: +100uM Un-labelled arginine, 10 mins, Balb/c ♂, 5ml/min; single mouse
Procedure: (§1) Self-inhibition experiments were also performed. […] Cross-competition experiments were also performed.
(§2) The percentage change in the RTissue uptake values achieved in the absence or presence of an unlabelled inhibitor can be calculated by means of Eq 4.
(§3) %change=RTissue−RInhibition/RTissue×100 Eq 4
(§4) We define RInhibition as the RTissue uptake in the presence of an inhibitor in the artificial plasma.
(§5) A decrease in the uptake of radiolabelled solute in the presence of unlabelled inhibitor is indicative of a saturable influx transport system. Conversely, an increase in the uptake of radiolabelled solute in the presence of unlabelled inhibitor is indicative of a saturable efflux transport system.

[3] = as above; type: in vivo, mouse; conditions: male, Balb/c, mouse, other: in situ brain perfusion, with 100 µM unlabelled L-arginine, +100uM Un-labelled arginine, 10 mins, Balb/c ♂, 5ml/min
Procedure: as §1, §2, §3, §4, §5

For `OC[C@H]1O[C@@](CO)(O[C@H]2O[C@H](CO)[C@@H](O)[C@H](O)[C@H]2O)[C@@H](O)[C@@H]1O` [[^14C]-sucrose, reference compound], the “pineal gland: [14C] Sucrose” value ([1]; 30 mins, Balb/c ♂, 5ml/min, single mouse) was 0.7704 and 1.659 and 1.346, the Kp at 30 min ([1]; caudate nucleus: [14C] Sucrose, 30 mins, Balb/c ♂, 5ml/min, mean) was 0.0778 and the Kp at 30 min ([1]; cerebellum: [14C] Sucrose, 30 mins, Balb/c ♂, 5ml/min, mean) was 0.059. It also gave a Kp at 30 min ([1]; cerebellum: [14C] Sucrose, 30 mins, Balb/c ♂, 5ml/min, single mouse) of 0.0613, a Kp at 30 min ([1]; pineal gland: [14C] Sucrose, 30 mins, Balb/c ♂, 5ml/min, mean) of 1.05 and a Kp at 30 min ([1]; pons: [14C] Sucrose, 30 mins, Balb/c ♂, 5ml/min, mean) of 0.124. For the same compound, the Kp at 30 min ([1]; thalamus: [14C] Sucrose, 30 mins, Balb/c ♂, 5ml/min, mean) was 0.0965, the Kp at 20 min ([1]; caudate nucleus) was 0.0663 and the Kp at 20 min ([1]; cerebellum) was 0.0456. For the same compound, the Kp at 20 min ([1]; frontal cortex) was 0.0797, the Kp at 20 min ([1]; hippocampus) was 0.0477 and the Kp at 20 min ([1]; hypothalamus) was 0.0657. The Kp at 20 min ([1]; pineal gland) was 0.524, the Kp at 20 min ([1]; pons) was 0.118 and the Kp at 20 min ([1]; thalamus) was 0.0672. For the same compound, the “pellet: [14C] Sucrose” value [2] was 0.001001 and 0.002262 and 0.003661 and 0.002471 and 0.002325, the Kp at 10 min ([3]; pellet, pellet: [14C] Sucrose, mean) was 0.00699 and the Kp at 10 min ([3]; pituitary gland, pituitary gland: [14C] Sucrose, mean) was 0.151. For the same compound, the Kp at 10 min ([3]; pons, pons: [14C] Sucrose, mean) was 0.0326 and the Kp at 10 min ([3]; supernatant, supernatant: [14C] Sucrose, single mouse) was 0.0159.
